Series [1] can be described thus: test for pyrogenity in rabbits (European Pharmacopoeia). The class given is in vivo. Particulars: 5 mg/kg i.v. On the procedure: The test for pyrogenity can be carried out in rabbits in accordance with the instructions given in the European Pharmacopoeia, Volume 2, pages 56 to 59 (1971). According to this test, for example N-propionyl- desmethylmuramyl-L-alanyl-D-isoglutaminyl-L-alanine-3-{2-[2-(2,6-dichlorophenylamino)-phenyl]-acetylamino}-2-hydroxypropylamide is not pyrogenic at a dose of 5 mg/kg i.v.

The subject of another series is viruses. Nature of the series: prophylaxis and treatment of virus infections in animals. It counts as in vivo, mice or guinea pigs. Particulars: tests on animals. From the text:
In these animal tests, animals, such as mice or guinea pigs, are infected with the most varied types of viruses at a dose that is lethal to all or the great majority of the untreated (control) animals, for example LD80-90, and the course of the infection is observed in the untreated control animals in comparison with animals treated with one of the above-mentioned compounds or a salt thereof before, simultaneously with or after infection.
These compounds of the formula I are effective in as low a dosage range as from 0.0001 mg/kg to 0.1 mg/kg in the above-mentioned test in mice.

As for `CCC(=O)N(C1O[C@H](CO)[C@@H](O)[C@H](OCC(=O)O)[C@H]1N)[C@@H](C)C(=O)N[C@H](CCC(=O)N[C@@H](C)C(=O)NCC(O)CNC(=O)Cc1ccccc1Nc1c(Cl)cccc1Cl)C(N)=O` (stereo partly drawn) [Example 6, N-propionyldesmethylmuramyl-L-alanyl-D-isoglutaminyl-L-alanine-3-{2-[2-(2,6-dichlorophenylamino)-phenyl]acetylamino}-2-hydroxypropylamide], in series [1], the pyrogenity result is listed as “not pyrogenic”.
“(1α,β),4,6-tri-O-acetyl-N-propionyldesmethylmuramyl-L-alanyl-D- isoglutaminyl-L-alanine-3-[d-2-(6-methoxy-2-naphthyl]-propionylamino]-2-acetoxypropylamide [Example 21]”: the “suitability for prophylaxis and treatment of virus infections” value in the series with viruses was “outstandingly suitable for the prophylaxis and treatment of virus infections”.
